{"source": "patent US20090214464A1", "about": "“COMPOUNDS FOR FLAVIVIRIDAE TREATMENT” (priority 2004, published 2009)", "key": {"HCV": {"test_system": "HCV", "settings": "ribavirin alone; cited from earlier work"}, "[1]": {"test_system": "HCV subgenomic replicon in MH-14 cells", "assay": "immunoblot analysis of HCV NS5A and NS5B proteins in MH-14 HCV replicon cells", "type": "cell-based", "settings": "7 days", "description": "(§1) Cell culture: Huh-7 and MH-14 cells, HCV replicon cells, are cultured in Dulbecco's modified Eagle's medium (DMEM) with 10% fetal bovine serum (FBS). PH5CH8 cells are cultured in a 1:1 mixture of DMEM and F12 medium supplemented with 100 ng/ml of epidermal growth factor, 10 μ/ml of insulin, 0.36 μg/ml of hydrocortisone, 5 μg/ml of transferrin, 5 μg/ml of linoleic acid, 20 ng/ml of selenium, 4 μg/ml of glucagon, 10 ng/ml of prolactin, 10 μg/ml of gentamicin, 200 μg/ml of kanamycin, and 2% FBS.\nImmunoblot analysis: Immunoblot analysis is performed as described by K. Watashi et al., Virology 2001, 286, 391-402. The primary antibodies used in this experiment are anti-NS5A, anti-NS5B, and anti-β-actin (Sigma) antibodies.\nThe effect of various cyclosporins of the invention on the replication of the HCV genome using MH-14 cells, in which the HCV subgenomic replicon as shown in FIG. 1A is autonomously replicated."}, "[2]": {"test_system": "HCV in PH5CH8 cells (non-neoplastic hepatocyte cell line)", "assay": "in vitro HCV infection experiment in PH5CH8 cells", "type": "cell-based", "settings": "PH5CH8 cells treated continuously; untreated cells increase about 10-fold", "description": "as §1\n(§2) Real time RT-PCR analysis: The 5′-UTR of HCV genome RNA is quantified using the ABI PRISM 7700 sequence detector (AppliedBiosystems) as described by T. Takeuchi et al., Gastroenterology, 1999, 116, 636-642. The forward and reverse primers used in this experiment are 5′-[…]-3′ and 5′-[…]-3′, respectively. The fluorogenic probe is 5′-[…]-3′. As an internal control, ribosomal RNA is also quantified using TaqMan Ribosomal RNA Control Reagents (Applied Biosystems)."}, "[3]": {"test_system": "Balb/c mice spleen cells stimulated with irradiated CBA spleen cells", "assay": "Mixed Lymphocyte Reaction (MLR)", "type": "cell-based", "excerpt": "Cyclosporins which bind strongly to cyclophilin but are not immunosuppressive have been identified. A cyclosporin is considered to be non-immunosuppressive when it has an activity in the Mixed Lymphocyte Reaction (MLR) of no more than 5%, preferably no more than 2%, that of cyclosporin A. The Mixed Lymphocyte Reaction is described by T. Meo in “Immunological Methods”, L. Lefkovits and B. Peris, Eds., Academic Press, N.Y. pp. 227-239 (1979). Spleen cells (0.5×10^6) from Balb/c mice (female, 8-10 weeks) are co-incubated for 5 days with 0.5×10^6 irradiated (2000 rads) or mitomycin C treated spleen cells from CBA mice (female, 8-10 weeks). The irradiated allogeneic cells induce a proliferative response in the Balb c spleen cells which can be measured by labeled precursor incorporation into the DNA. […] The IC50 found for the test compound in the MLR is compared with that found for cyclosporin A in a parallel experiment. In addition, non-immunosuppressive cyclosporins lack the capacity of inhibiting CN and the downstream NF-AT pathway.\nIR=immunosuppressive Ratio, expressed as a percentage of the activity relative to Cyclosporin A."}, "[4]": {"molecular_target": "human recombinant cyclophilin (Homo sapiens, UniProt P62937)", "sequence (P62937 whole entry)": "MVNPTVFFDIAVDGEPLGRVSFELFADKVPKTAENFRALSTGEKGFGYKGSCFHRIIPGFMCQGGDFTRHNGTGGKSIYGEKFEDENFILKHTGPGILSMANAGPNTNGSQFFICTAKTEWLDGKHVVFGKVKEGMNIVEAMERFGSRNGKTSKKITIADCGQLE", "assay": "competitive ELISA test of cyclophilin binding (Binding Ratio)", "settings": "relative to cyclosporin A in a simultaneous test", "from_the_text": "A cyclosporin is considered as binding to cyclophilin if it binds to human recombinant cyclophilin at least one fifth as well as does cyclosporin A in the competitive ELISA test described by Quesniaux in Eur. J. Immunol. […] The results are expressed as the Binding Ratio (BR), which is the log to the base 10 of the ratio of the IC50 of the test compound and the IC50 in a simultaneous test of cyclosporin A itself."}, "[5]": {"test_system": "HCV subgenomic replicon in MH-14 cells", "assay": "northern blot analysis of replicon RNA in MH-14 cells", "type": "cell-based", "settings": "1 μg/ml, 7 days", "description": "as §1\nNorthern blot analysis: Northern blot analysis is performed as described by H. Kishine et al., Biochem. Biophys. Res. Commun., 2002, 47, 119-125. The probe complementary to the NS5B sequence used in this experiment is described by H. Kishine, supra.\n(§3) Replicon RNA is analyzed in MH-14 cells treated with or without a cyclosporin of the invention or IFNα for 7 days by northern blot analysis."}, "[6]": {"test_system": "HCV subgenomic replicon in MH-14 cells", "settings": "7th day", "description": "as §2, §3"}}}
{"compound": "NC(=O)c1ncn([C@@H]2O[C@H](CO)[C@@H](O)[C@H]2O)n1", "note": "[Ribavirin, 1-β-D-ribofuranosyl-1-1,2,4-triazole-3-caroxamide]", "values": [{"measurement": "patients with serum amino transferase levels reduced to normal", "setting": "HCV", "result": "40 % of patients"}, {"measurement": "serum levels of HCV-RNA", "setting": "HCV", "result": "does not lower"}]}
{"compound": "IFNα", "values": [{"measurement": "amount of HCV NS5A and NS5B proteins by immunoblot analysis", "setting": "[1]; 100 U/ml, positive control", "result": "undetectable"}, {"measurement": "increase of HCV RNA genome titer, 5th day versus 1st day post-inoculation", "setting": "[2]", "result": "not observed"}]}
{"compound": "[8′-hydroxy-MeBmt]^1-Ciclosporin", "values": [{"measurement": "IR (immunosuppressive Ratio, percentage of the activity relative to Cyclosporin A)", "setting": "[3]", "result": 1.8, "unit": "%"}, {"measurement": "BR (Binding Ratio: log to the base 10 of the ratio of the IC50 of the test compound and the IC50 of cyclosporin A)", "setting": "[4]", "result": 0.35}]}
{"compound": "[Ethyl-Ile]^4-Ciclosporin", "values": [{"measurement": "BR (Binding Ratio: log to the base 10 of the ratio of the IC50 of the test compound and the IC50 of cyclosporin A)", "setting": "[4]", "result": 0.1}]}
{"compound": "[Ethyl-Val]^4-Ciclosporin", "values": [{"measurement": "BR (Binding Ratio: log to the base 10 of the ratio of the IC50 of the test compound and the IC50 of cyclosporin A)", "setting": "[4]", "result": 0}]}
{"compound": "[MeAla]^6-Ciclosporin", "values": [{"measurement": "IR (immunosuppressive Ratio, percentage of the activity relative to Cyclosporin A)", "setting": "[3]", "result": 3.2, "unit": "%"}, {"measurement": "BR (Binding Ratio: log to the base 10 of the ratio of the IC50 of the test compound and the IC50 of cyclosporin A)", "setting": "[4]", "result": "−0.4"}]}
{"compound": "[MeVa]^4-Ciclosporin", "values": [{"measurement": "BR (Binding Ratio: log to the base 10 of the ratio of the IC50 of the test compound and the IC50 of cyclosporin A)", "setting": "[4]", "result": 0.1}]}
{"compound": "[MeVal]^5-Ciclosporin", "values": [{"measurement": "IR (immunosuppressive Ratio, percentage of the activity relative to Cyclosporin A)", "setting": "[3]", "result": 5.3, "unit": "%"}, {"measurement": "BR (Binding Ratio: log to the base 10 of the ratio of the IC50 of the test compound and the IC50 of cyclosporin A)", "setting": "[4]", "result": 0.4}]}
{"compound": "[Melle]^4-Ciclosporin", "values": [{"measurement": "amount of HCV NS5A and NS5B proteins by immunoblot analysis", "setting": "[1]; 1 μg/ml", "result": "undetectable"}, {"measurement": "amount of replicon RNA by northern blot", "setting": "[5]", "result": "undetectable level"}, {"measurement": "level of HCV RNA relative to the original", "setting": "[6]", "result": "about 1/400"}, {"measurement": "increase of HCV RNA genome titer, 5th day versus 1st day post-inoculation", "setting": "[2]", "result": "not observed"}, {"measurement": "BR (Binding Ratio: log to the base 10 of the ratio of the IC50 of the test compound and the IC50 of cyclosporin A)", "setting": "[4]", "result": "−0.2"}]}
{"compound": "[γ-hydroxy-MeLeu]^9-Ciclosporin", "values": [{"measurement": "IR (immunosuppressive Ratio, percentage of the activity relative to Cyclosporin A)", "setting": "[3]", "result": 2.9, "unit": "%"}, {"measurement": "BR (Binding Ratio: log to the base 10 of the ratio of the IC50 of the test compound and the IC50 of cyclosporin A)", "setting": "[4]", "result": 0.15}]}
